Results from the supplement of paper PMC10307832.

Assays:
Test in all cases: relative viability (nuclei count vs DMSO), 5 days (fraction); higher = more cells survive
[1] = test system: BEN
Outline: (§1)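 After 5 days of treatment, lung cancer cells in 1536-well plates were fixed and stained in a single step (final 0.05% Triton X-100, 1% formaldehyde, 1 ug/ml Hoechst) and their nuclei counted on 4× images. Treatment had been applied by pin tool the day after seeding as one drug alone or as a fixed anchor-drug dose with five library-drug doses (not always all listed) in √10 steps. Relative viability is the nuclei count of treated wells divided by that of vehicle wells, and values are medians of duplicate plates.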

[2] = test system: LK-2
Outline: as §1

[3] = test system: ChaGo-K-1
Outline: as §1

[4] = test system: PC-3 [JPC-3]
Outline: as §1

[5] = test system: NCI-H1355
Outline: as §1

[6] = test system: NCI-H2342
Outline: as §1

[7] = test system: NCI-H2087
Outline: as §1

[8] = test system: NCI-H1651
Outline: as §1

[9] = test system: NCI-H838
Outline: as §1

[10] = test system: NCI-H661
Outline: as §1

[11] = test system: LC-2-ad
Outline: as §1

O=c1cc(-c2cccc3c2Sc2ccccc2S3)oc(N2CCOCC2)c1 + N=C(N)NC(=N)NCCc1ccccc1 [Phenformin] (partner 250 µM)
relative viability ([1]; first compound 0.08 µM): 0.258 | relative viability ([1]; first compound 0.253 µM): 0.306 | relative viability ([1]; first compound 0.8 µM): 0.248 | relative viability ([1]; first compound 2.53 µM): 0.217 | relative viability ([1]; first compound 8 µM): 0.3 | relative viability ([2]; first compound 0.08 µM): 0.582 | relative viability ([2]; first compound 0.253 µM): 0.551 | relative viability ([2]; first compound 0.8 µM): 0.524 | relative viability ([2]; first compound 2.53 µM): 0.29 | relative viability ([2]; first compound 8 µM): 0.381 | relative viability ([3]; first compound 0.08 µM): 0.463 | relative viability ([3]; first compound 0.253 µM): 0.53 | relative viability ([3]; first compound 0.8 µM): 0.56 | relative viability ([3]; first compound 2.53 µM): 0.344 | relative viability ([3]; first compound 8 µM): 0.509 | relative viability ([4]; first compound 0.08 µM): 0.473 | relative viability ([4]; first compound 0.253 µM): 0.458 | relative viability ([4]; first compound 0.8 µM): 0.514 | relative viability ([4]; first compound 2.53 µM): 0.448 | relative viability ([4]; first compound 8 µM): 0.495 | relative viability ([5]; first compound 0.08 µM): 0.47 | relative viability ([5]; first compound 0.253 µM): 0.479 | relative viability ([5]; first compound 0.8 µM): 0.421 | relative viability ([5]; first compound 2.53 µM): 0.429 | relative viability ([5]; first compound 8 µM): 0.409 | relative viability ([6]; first compound 0.08 µM): 0.526 | relative viability ([6]; first compound 0.253 µM): 0.62 | relative viability ([6]; first compound 0.8 µM): 0.542 | relative viability ([6]; first compound 2.53 µM): 0.557 | relative viability ([6]; first compound 8 µM): 0.608 | relative viability ([7]; first compound 0.08 µM): 0.47 | relative viability ([7]; first compound 0.253 µM): 0.623 | relative viability ([7]; first compound 0.8 µM): 0.527 | relative viability ([7]; first compound 2.53 µM): 0.398 | relative viability ([7]; first compound 8 µM): 0.462 | relative viability ([8]; first compound 0.08 µM): 0.342 | relative viability ([8]; first compound 0.253 µM): 0.526 | relative viability ([8]; first compound 0.8 µM): 0.423 | relative viability ([8]; first compound 2.53 µM): 0.362 | relative viability ([8]; first compound 8 µM): 0.299 | relative viability ([9]; first compound 0.08 µM): 0.517 | relative viability ([9]; first compound 0.253 µM): 0.726 | relative viability ([9]; first compound 0.8 µM): 0.488 | relative viability ([9]; first compound 2.53 µM): 0.531 | relative viability ([9]; first compound 8 µM): 0.503 | relative viability ([10]; first compound 0.08 µM): 0.269 | relative viability ([10]; first compound 0.253 µM): 0.26 | relative viability ([10]; first compound 0.8 µM): 0.271 | relative viability ([10]; first compound 2.53 µM): 0.267 | relative viability ([10]; first compound 8 µM): 0.259 | relative viability ([11]; first compound 0.08 µM): 0.557 | relative viability ([11]; first compound 0.253 µM): 0.576 | relative viability ([11]; first compound 0.8 µM): 0.645 | relative viability ([11]; first compound 2.53 µM): 0.558
